The target in one experiment is human Gal-1 (hGal-1) (Homo sapiens, UniProt P09382, C131S/C17S/C43S/C61S/C89S). The experiment can be described thus: Competitive binding assay: biotinylated hGal-1 binding to microplate-adsorbed asialofetuin (ASF). As to conditions: IC50 values from several measurements given as geomean. In short, it runs like this:
(§1)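 Biotinylated hGal-3 or hGal-1 (preferably cysteine-free Cys→Ser mutant), 300–1000 ng/mL, competes with compound for ASF-coated wells for 3 h at 4 °C. Bound lectin detected with streptavidin-peroxidase (80 ng/mL, 1 h, 4 °C) and ABTS by absorbance; IC50 reported as geomean of several runs.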

A further experiment deals with human Gal-3 (hGal-3) (Homo sapiens (Human), UniProt P17931). The experiment can be described thus: Competitive binding assay: biotinylated hGal-3 binding to microplate-adsorbed asialofetuin (ASF). As to conditions: IC50 values from several measurements given as geomean. In outline: as §1
human Gal-3 (hGal-3), sequence (P17931 whole entry): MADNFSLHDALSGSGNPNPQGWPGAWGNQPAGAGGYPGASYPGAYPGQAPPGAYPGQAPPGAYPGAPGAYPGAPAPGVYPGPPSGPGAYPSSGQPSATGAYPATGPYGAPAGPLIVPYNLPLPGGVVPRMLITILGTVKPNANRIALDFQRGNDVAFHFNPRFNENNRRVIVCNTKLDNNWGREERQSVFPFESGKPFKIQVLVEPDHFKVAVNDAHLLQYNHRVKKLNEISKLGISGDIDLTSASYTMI

The IC50 is the concentration needed to halve the response being measured. A lower IC50 goes with greater potency in that assay. On to `CO[C@@H]1[C@@H](n2cc(-c3ccc(Cl)c(F)c3F)nn2)[C@@H](O)[C@@H](CO)O[C@@H]1Cc1cn(C2CC23CC3(F)F)nn1` (stereo partly drawn) [Ex 2.1.75., (2R,3R,4S,5R,6R)-4-(4-(4-chloro-2,3-difluorophenyl)-1H-1,2,3-triazol-1-yl)-6-((1-(4,4-difluorospiro[2.2]pentan-1-yl)-1H-1,2,3-triazol-4-yl)methyl)-2-(hydroxymethyl)-5-methoxytetrahydro-2H-pyran-3-ol], for which the IC50 on human Gal-1 (hGal-1) amounted to 2780 nM; at human Gal-3 (hGal-3), 50 nM.
For the molecule `CO[C@@H]1[C@@H](n2cc(-c3ccc(F)c(F)c3F)nn2)[C@@H](O)[C@@H](CO)O[C@@H]1Cc1cn(C2CC3(CC3)C2)nn1` [Ex 3.1.26.], the concentration for half-maximal inhibition (IC50) at human Gal-1 (hGal-1) amounted to 760 nM; at human Gal-3 (hGal-3), 70 nM.
The like results for `CO[C@@H]1[C@@H](n2cc(-c3ccc(Br)c(F)c3F)nn2)[C@@H](O)[C@@H](CO)O[C@@H]1Cc1cn([C@@H]2CC[C@@H]2F)nn1` (relative stereo) [Example 4.1.88.AB, (2R,3R,4S,5R,6R)-4-(4-(4-bromo-2,3-difluorophenyl)-1H-1,2,3-triazol-1-yl)-6-((1-((1R*,2S*)-2-fluorocyclobutyl)-1H-1,2,3-triazol-4-yl)methyl)-2-(hydroxymethyl)-5-methoxytetrahydro-2H-pyran-3-ol] were, in that order, 2450 nM and 30 nM.
`CO[C@@H]1[C@@H](n2cc(-c3ccc(F)c(F)c3F)nn2)[C@@H](O)[C@@H](CO)O[C@@H]1Cn1cc(C2(O)CC2)nn1` [Ex 3.2.36.]: the IC50 amounted to 2140 nM at human Gal-1 (hGal-1) and 130 nM at human Gal-3 (hGal-3).
Regarding `CO[C@@H]1[C@@H](n2cc(-c3ccc(Br)c(F)c3F)nn2)[C@@H](O)[C@@H](CO)O[C@@H]1Cc1cn(C2(CF)COC2)nn1` [Ex 4.1.52., (2R,3R,4S,5R,6R)-4-(4-(4-bromo-2,3-difluorophenyl)-1H-1,2,3-triazol-1-yl)-6-((1-(3-(fluoromethyl)oxetan-3-yl)-1H-1,2,3-triazol-4-yl)methyl)-2-(hydroxymethyl)-5-methoxytetrahydro-2H-pyran-3-ol], the IC50 was 850 nM at human Gal-1 (hGal-1) and 30 nM on human Gal-3 (hGal-3).
The like results for `CO[C@@H]1[C@@H](n2cc(-c3ccc(Cl)c(F)c3F)nn2)[C@@H](O)[C@@H](CO)O[C@@H]1Cc1cn([C@]2(C)C[C@@H](O)C2)nn1` [Ex 2.1.27.] were, in that order, 700 nM and 30 nM.
The like results for `CO[C@@H]1[C@@H](n2cc(-c3ccc(F)c(F)c3F)nn2)[C@@H](O)[C@@H](CO)O[C@@H]1Cc1cn(C2(C(F)(F)F)CCC2)nn1` [Ex 3.1.55., (2R,3R,4S,5R,6R)-2-(hydroxymethyl)-5-methoxy-6-((1-(1-(trifluoromethyl)cyclobutyl)-1H-1,2,3-triazol-4-yl)methyl)-4-(4-(2,3,4-trifluorophenyl)-1H-1,2,3-triazol-1-yl)tetrahydro-2H-pyran-3-ol] were, in that order, 180 nM and 40 nM.
`CO[C@@H]1[C@@H](n2cc(-c3ccc(C)c(F)c3F)nn2)[C@@H](O)[C@@H](CO)O[C@@H]1Cc1cn(C23CC(C(F)(F)F)(C2)C3)nn1` [Ex 1.1.24.]: the IC50 on human Gal-1 (hGal-1) was determined as 5040 nM; on human Gal-3 (hGal-3), 80 nM.
The like results for `CO[C@@H]1[C@@H](n2cc(-c3ccc(F)c(F)c3F)nn2)[C@@H](O)[C@@H](CO)O[C@@H]1Cc1cn([C@@H]2CCOC[C@H]2F)nn1` (single isomer, unassigned) [Example 3.1.66.C, (2R,3R,4S,5R,6R)-6-((1-((3S*,4R*)-3-fluorotetrahydro-2H-pyran-4-yl)-1H-1,2,3-triazol-4-yl)methyl)-2-(hydroxymethyl)-5-methoxy-4-(4-(2,3,4-trifluorophenyl)-1H-1,2,3-triazol-1-yl)tetrahydro-2H-pyran-3-ol] were, in that order, 270 nM and 40 nM.
Take `CO[C@@H]1[C@@H](n2cc(-c3ccc(Br)c(F)c3F)nn2)[C@@H](O)[C@@H](CO)O[C@@H]1Cc1cn(C2(CF)CCC2)nn1` [Ex 4.1.40., (2R,3R,4S,5R,6R)-4-(4-(4-bromo-2,3-difluorophenyl)-1H-1,2,3-triazol-1-yl)-6-((1-(1-(fluoromethyl)cyclobutyl)-1H-1,2,3-triazol-4-yl)methyl)-2-(hydroxymethyl)-5-methoxytetrahydro-2H-pyran-3-ol]: the results for the IC50 at human Gal-1 (hGal-1) and at human Gal-3 (hGal-3) were 1030 nM and 60 nM, respectively.
The like results for `CO[C@@H]1[C@@H](n2cc(-c3ccc(Cl)c(F)c3F)nn2)[C@@H](O)[C@@H](CO)O[C@@H]1Cn1cc(C2(O)CCC2)nn1` [Ex 2.2.31.] were, in that order, 2630 nM and 90 nM.
In the case of `CO[C@@H]1[C@@H](n2cc(-c3ccc(Cl)c(F)c3F)nn2)[C@@H](O)[C@@H](CO)O[C@@H]1Cc1cn(C2CC(F)C2)nn1` (single isomer, unassigned) [Example 2.1.60.A], the IC50 at human Gal-1 (hGal-1) is 690 nM; on human Gal-3 (hGal-3), 20 nM.
Consider `CO[C@@H]1[C@@H](n2cc(-c3ccc(Cl)c(F)c3F)nn2)[C@@H](O)[C@@H](CO)O[C@@H]1Cc1cn([C@@H]2CC[C@H]2F)nn1` (single isomer, unassigned) [Example 2.1.88.D, (2R,3R,4S,5R,6R)-4-(4-(4-chloro-2,3-difluorophenyl)-1H-1,2,3-triazol-1-yl)-6-((1-((1R*,2R*)-2-fluorocyclobutyl)-1H-1,2,3-triazol-4-yl)methyl)-2-(hydroxymethyl)-5-methoxytetrahydro-2H-pyran-3-ol], for which the IC50 at human Gal-1 (hGal-1) amounted to 2270 nM; at human Gal-3 (hGal-3), 40 nM.
As for `CO[C@@H]1[C@@H](n2cc(-c3ccc(C)c(F)c3F)nn2)[C@@H](O)[C@@H](CO)O[C@@H]1Cc1cn(C2CC2C(C)C)nn1` (some centres unmarked) [Ex 1.1.17.], the figures for the IC50 at human Gal-1 (hGal-1) and on human Gal-3 (hGal-3) were 5000 nM and 110 nM, respectively.
The like results for `CO[C@@H]1[C@@H](n2cc(-c3ccc(Br)c(F)c3F)nn2)[C@@H](O)[C@@H](CO)O[C@@H]1Cn1cc(C2(C)CCC2)nn1` [Ex 4.2.13.] were, in that order, 1930 nM and 50 nM.
As to `CO[C@@H]1[C@@H](n2cc(-c3ccc(Br)c(F)c3F)nn2)[C@@H](O)[C@@H](CO)O[C@@H]1Cc1cn(C23CC(C(F)(F)F)(C2)C3)nn1` [Ex 4.1.24.], the IC50 at human Gal-1 (hGal-1) stood at 28400 nM; at human Gal-3 (hGal-3), 130 nM.
`CO[C@@H]1[C@@H](n2cc(-c3ccc(C)c(F)c3F)nn2)[C@@H](O)[C@@H](CO)O[C@@H]1Cc1cn(C2(C)CCC2)nn1` [Ex 1.1.13.]: the IC50 is 1450 nM at human Gal-1 (hGal-1) and 30 nM at human Gal-3 (hGal-3).
As to `CO[C@@H]1[C@@H](n2cc(-c3ccc(C)c(F)c3F)nn2)[C@@H](O)[C@@H](CO)O[C@@H]1Cn1cc(C2(O)CCC2)nn1` [Ex 1.2.31.], the IC50 on human Gal-1 (hGal-1) was found to be 3760 nM; at human Gal-3 (hGal-3) it was 60 nM.
Take `CO[C@@H]1[C@@H](n2cc(-c3ccc(F)c(F)c3F)nn2)[C@@H](O)[C@@H](CO)O[C@@H]1Cc1cn(C2(C)CC2)nn1` [Ex 3.1.23.]: the IC50 at human Gal-1 (hGal-1) is 390 nM; at human Gal-3 (hGal-3), 50 nM.
Take `CO[C@@H]1[C@@H](n2cc(-c3ccc(Cl)c(F)c3F)nn2)[C@@H](O)[C@@H](CO)O[C@@H]1Cc1cn(C2CCC2(F)F)nn1` (single isomer, unassigned) [Example 2.1.63.A]: the figures for the IC50 on human Gal-1 (hGal-1) and at human Gal-3 (hGal-3) were 2170 nM and 60 nM, respectively.
The like results for `CO[C@@H]1[C@@H](n2cc(-c3ccc(Cl)c(F)c3F)nn2)[C@@H](O)[C@@H](CO)O[C@@H]1Cc1cn(C2(CO)CC(F)(F)C2)nn1` [Ex 2.1.18.] were, in that order, 2810 nM and 40 nM.
The like results for `CO[C@@H]1[C@@H](n2cc(-c3ccc(Br)c(F)c3F)nn2)[C@@H](O)[C@@H](CO)O[C@@H]1Cc1cn(C2(CO)CC2)nn1` [Ex 4.1.4.] were, in that order, 2930 nM and 40 nM.
The like results for `CO[C@@H]1[C@@H](n2cc(-c3ccc(Br)c(F)c3F)nn2)[C@@H](O)[C@@H](CO)O[C@@H]1Cc1cn(C23COC(C2)C3)nn1` [Ex 4.1.44.] were, in that order, 3300 nM and 40 nM.
For the molecule `CO[C@@H]1[C@@H](n2cc(-c3ccc(Cl)c(F)c3F)nn2)[C@@H](O)[C@@H](CO)O[C@@H]1Cc1cn([C@]2(C)C[C@H](F)C2)nn1` [Ex 2.1.47.B], the values for the IC50 on human Gal-1 (hGal-1) and at human Gal-3 (hGal-3) were 1200 nM and 30 nM, respectively.
The like results for `CO[C@@H]1[C@@H](n2cc(-c3ccc(Br)c(F)c3F)nn2)[C@@H](O)[C@@H](CO)O[C@@H]1Cn1cc(C23CCC(N)(CC2)CC3)nn1` [Ex 4.2.39.] were, in that order, 2190 nM and 60 nM.
The like results for `CO[C@@H]1[C@@H](n2cc(-c3ccc(Br)c(F)c3F)nn2)[C@@H](O)[C@@H](CO)O[C@@H]1Cc1cn([C@]2(C)C[C@H](O)C2)nn1` [Ex 4.1.19.] were, in that order, 1820 nM and 50 nM.
Take `CO[C@@H]1[C@@H](n2cc(-c3ccc(F)c(F)c3F)nn2)[C@@H](O)[C@@H](CO)O[C@@H]1Cc1cn(C23COC(C)(C2)C3)nn1` [Ex 3.1.59.]: the half-maximal inhibitory concentration (IC50) at human Gal-1 (hGal-1) stood at 520 nM; at human Gal-3 (hGal-3), 40 nM.
`CO[C@@H]1[C@@H](n2cc(-c3ccc(Cl)c(F)c3F)nn2)[C@@H](O)[C@@H](CO)O[C@@H]1Cc1cn(C2(C(F)F)CCC2)nn1` [Ex 2.1.43.]: the IC50 at human Gal-1 (hGal-1) turned out to be 610 nM; at human Gal-3 (hGal-3), 20 nM.
Consider `CO[C@@H]1[C@@H](n2cc(-c3ccc(F)c(F)c3F)nn2)[C@@H](O)[C@@H](CO)O[C@@H]1Cn1cc(C2(C)CC2)nn1` [Ex 3.2.23.], for which the IC50 amounted to 300 nM at human Gal-1 (hGal-1) and 80 nM on human Gal-3 (hGal-3).
As for `CO[C@@H]1[C@@H](n2cc(-c3ccc(Br)c(F)c3F)nn2)[C@@H](O)[C@@H](CO)O[C@@H]1Cc1cn(C2CCC2(F)F)nn1` (stereo partly drawn) [Example 4.1.63.AB, (2R,3R,4S,5R,6R)-4-(4-(4-bromo-2,3-difluorophenyl)-1H-1,2,3-triazol-1-yl)-6-((1-(2,2-difluorocyclobutyl)-1H-1,2,3-triazol-4-yl)methyl)-2-(hydroxymethyl)-5-methoxytetrahydro-2H-pyran-3-ol], the figures for the IC50 at human Gal-1 (hGal-1) and on human Gal-3 (hGal-3) were 3190 nM and 70 nM, respectively.
The like results for `CO[C@@H]1[C@@H](n2cc(-c3ccc(Cl)c(F)c3F)nn2)[C@@H](O)[C@@H](CO)O[C@@H]1Cc1cn(C2(CO)CCCC2)nn1` [Ex 2.1.5.] were, in that order, 2250 nM and 60 nM.

Values taken from patent US20240109930A1, “TRIAZOLYL-METHYL SUBSTITUTED ALPHA-D-GALACTOPYRANOSIDE DERIVATIVES” (Idorsia Pharmaceuticals Ltd, priority 2021, published 2024).
